Square brackets hold non-standard residues; d marks the D form. Peptide text beside a SMILES is read from it. Ava = NCCCCC(=O)O
Tests used:
HIV-1 NL 4-3 [1] = assay: Infection of human peripheral blood lymphocytes (PBL) with NL 4-3 strain, p24 ELISA; format: cell-based
How it was run: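 PHA-stimulated (3 days) HIV-negative donor PBL in RPMI/10% FCS with IL2 were pretreated 1 h at 37 °C with peptides, infected 1 h with HIV-1 (1000 TCID50/ml), then cultured three weeks with continuous peptide, medium renewed every 3-4 days. Supernatant p24 quantified by ELISA; viability by trypan-blue exclusion; duplicates.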

[2] = system: HIV-1 89.6 subtype B dualtropic (X4R5); conditions: PBMC, Table 5
HIV-1 NL 4-3 [3] = assay: HIV-1 infection of C8166 cells (syncytia formation, p24 ELISA) with HIV-1 NL 4-3; format: cell-based; parameters: key: ++, +, (+), (+)− and − represent decreasing numbers of syncitia formed.; ++, +, (+), (+)− and − represent decreasing numbers of syncitia formed.; ++, +, (+), (+)− and − represent decreasing numbers of syncitia formed.; ++, +, (+), (+)− and − represent decreasing numbers of syncitia formed.; ++, +, (+), (+)− and − represent decreasing numbers of syncitia formed; conditions: Table 2
Protocol: HIV-1 NL 4-3 isolate (Adachi et al., 1986; Barré-Sinoussi et al., 1983) and highly cytopathic Zairian HIV-1 NDK isolate (Ellrodt et al., 1984) was propagated in permissive CEM cells (Nara et al., 1987). Uninfected CEM and C8166 (Salahuddin et al., 1983) were maintained in RPMI 1640 (R10) with ultraglutamine (cambrex, Vervier, Belgium), penicillin (100 U/ml), streptomycin (100 μg/ml), and 10% heat-inactivated fetal calf serum (Cambrex).
Samples of 3×10^5/100 μL C8166 cells were preincubated in 96-well microtiter plates in culture medium containing various concentrations of peptide. After a 1 h treatment at 37° C., 100 μl of diluted viral solution of HIV-1 was added. The cells were exposed to the virus for 1 h at 37° C. at a multiplicity of infection of 1000 TCID50 per ml. The cells were washed three times and cultured at 3×10^5/ml of R10 with the treatment in 24-well plates incubated at 37° C. C8166 culture medium was replaced at Day-4 post-infection. The treatment was permanent before virus adsorption, during virus adsorption and after infection. Assays on C8166 cells have been performed at least twice and in duplicate. Toxicity was evaluated by daily cell count and trypan-blue exclusion assay. Infection of C8166 T-cells with HIV-1 was assessed by virus-induced cytopathic effects (syncytia formation) and by quantification of cell free p24 viral protein in the culture supernatants. Measurements of HIV-1 p24^gag concentration in the culture supernatants were achieved by ELISA (ALLIANCE® HIV-1 p24 kit, Perkin Elmer, life sciences, USA).

SMILES	IC50 (HIV-1 NL 4-3 [1]; PBL, NL 4-3 strain, Table 4) [nM]	IC100 (HIV-1 NL 4-3 [1]; PBL, NL 4-3 strain, Table 4) [µM]	IC100 (HIV-1 NL 4-3 [1]; text b43 on PBL results) [µM]	IC50 [2] [nM]	IC100 [2] [µM]	IC100 (HIV-1 NL 4-3 [1]; on PBL) [µM]	Day 4 syncitia formed (HIV-1 NL 4-3 [3]; 1 μM)	Day 5 syncitia formed (HIV-1 NL 4-3 [3]; 1 μM)	Day 6 syncitia formed (HIV-1 NL 4-3 [3]; 1 μM)	Day 7 syncitia formed (HIV-1 NL 4-3 [3]; 1 μM)	Day 4 syncitia formed (HIV-1 NL 4-3 [3]; 5 μM)	Day 5 syncitia formed (HIV-1 NL 4-3 [3]; 5 μM)	Day 6 syncitia formed (HIV-1 NL 4-3 [3]; 5 μM)	Day 7 syncitia formed (HIV-1 NL 4-3 [3]; 5 μM)
C[C@H](NC(=O)[C@H](CCCNC(=N)N)NC(=O)CNC(=O)[C@@H]1CCCN1C(=O)CN)C(=O)N[C@@H](Cc1ccccc1)C(=O)NCCCCC(=O)O [SPC3 monomer valeric acid, GPGRAF-NHCH2CH2CH2CH2COOH] (H-GPGRAF[Ava]-OH; N-terminus assumed)	20	0.1	0.1	10	0.5									
C[C@H](NC(=O)[C@H](CCCNC(=N)N)NC(=O)CNC(=O)[C@@H]1CCCN1C(=O)CN)C(=O)N[C@@H](Cc1ccccc1)C(=O)NCCCC[C@H](NC(=O)[C@H](Cc1ccccc1)NC(=O)[C@H](C)NC(=O)[C@H](CCCNC(=N)N)NC(=O)CNC(=O)[C@@H]1CCCN1C(=O)CN)C(=O)NCCCC[C@H](NC(=O)[C@H](CCCCNC(=O)[C@H](Cc1ccccc1)NC(=O)[C@H](C)NC(=O)[C@H](CCCNC(=N)N)NC(=O)CNC(=O)[C@@H]1CCCN1C(=O)CN)NC(=O)[C@H](Cc1ccccc1)NC(=O)[C@H](C)NC(=O)[C@H](CCCNC(=N)N)NC(=O)CNC(=O)[C@@H]1CCCN1C(=O)CN)C(=O)NCCCC[C@H](NC(=O)[C@H](CCCCNC(=O)[C@H](CCCCNC(=O)[C@H](Cc1ccccc1)NC(=O)[C@H](C)NC(=O)[C@H](CCCNC(=N)N)NC(=O)CNC(=O)[C@@H]1CCCN1C(=O)CN)NC(=O)[C@H](Cc1ccccc1)NC(=O)[C@H](C)NC(=O)[C@H](CCCNC(=N)N)NC(=O)CNC(=O)[C@@H]1CCCN1C(=O)CN)NC(=O)[C@H](CCCCNC(=O)[C@H](Cc1ccccc1)NC(=O)[C@H](C)NC(=O)[C@H](CCCNC(=N)N)NC(=O)CNC(=O)[C@@H]1CCCN1C(=O)CN)NC(=O)[C@H](Cc1ccccc1)NC(=O)[C@H](C)NC(=O)[C@H](CCCNC(=N)N)NC(=O)CNC(=O)[C@@H]1CCCN1C(=O)CN)C(=O)NCCC(=O)O [SPC3, (GPGRAF)8-K4-K2-K-βA-OH, reference compound]	10	0.1	2	60	0.5	2	(+)	+	++	++	−	(+)	+	++

Reference: patent publication US20060229433A1, “Modified antiviral peptides with increased activity and cell membrane affinity” (priority 2003, published 2006)
